Measured values as given in EP4725508A1, “LIGAND-DRUG CONJUGATE HAVING FREE PAYLOAD RECOVERY UNIT” (RemeGen Co., Ltd., priority 2024, dated 2025).
Entries after “also recorded” stand apart in the source; their conditions may differ. Ends that are not written are not given here.

How the values were obtained:
OVA-MMAF = test: Peptide ELISA binding experiment (Fc fusion peptides); details: antigens coated 1 µg/mL, peptide from 2000 nM (FIG. 34)
Procedure: The constructed Fc fusion peptide molecules PP-1A-#84 to #95 were used for identification of binding specificity to OVA-MMAF and OVA, to determine molecules with better specific binding activity to MMAE. […] Table 20. Amino acid sequence listing of PP-1A-#85 (peptide) to PP-1A-#94 (peptide) and PP-1A-#85 (Fc fusion peptide)
• (1) Antigen coating: MMAF conjugated protein and negative protein were coated onto a microplate using coating buffer at a concentration of 1 µg/mL, and the plate was placed at 4°C overnight for about 16 h. (2) Blocking: The plate coated with antigen was washed once with PBST using a plate washer, and blocked by adding Casein solution at 200 µL/well at room temperature for 1 h. (3) Primary antibody incubation: The plate was washed 3 times with PBST, and peptide samples with an initial concentration of 2000 nM diluted in a 5-fold gradient using Casein solution were added. The negative control was the Fc.uIgG1 molecule. Incubation was performed at room temperature for 2 h. (4) Secondary antibody incubation: The plate was washed 3 times with PBST, and secondary antibody Goat pAb to Hu IgG(HRP) (1:10000) (Abcam, Cat. Ab97225) diluted with Casein solution was added and incubated at room temperature for 1 h. (5) Color development: The plate was washed 6 times with PBST, 100 µL of TMB color development solution was added to each well, and color was developed for 2 to 10 min protected from light. (6) Termination: 100 µL of 2 M H2SO4 was added to each well to terminate the reaction. The OD450 value was read using a microplate reader, recorded, and saved. Finally, the data were analyzed using GraphPad software.

OVA-MMAF and BSA-MMAF = test: Peptide ELISA binding experiment (PP-1B Fc fusion peptides); details: FIG. 42
Procedure: The binding of the constructed Fc fusion peptide molecules PP-1B-#70 to #74 with OVA-MMAF and OVA was identified respectively to screen for molecules with better specific binding specificity to MMAE. After the first round of primary screening was completed, the binding specificity of #74 with OVA-MMAF and BSA-MMAF was further verified.
• (1) Antigen coating: MMAF conjugated protein and negative protein were coated onto a microplate using coating buffer at a concentration of 1 µg/mL, and the plate was placed at 4°C overnight for about 16 h. (2) Blocking: The microplate coated with antigen was washed once with PBST using a plate washer, and blocked by adding Casein solution at 200 µL/well at room temperature for 1 h. (3) Primary antibody incubation: The plate was washed 3 times with PBST, and peptide samples with an initial concentration of 2000 nM diluted in a 5-fold gradient using Casein solution were added and the plate incubated at room temperature for 2 h. (4) Secondary antibody incubation: The plate was washed 3 times with PBST, and secondary antibody Goat pAb to Hu IgG(HRP) (1:10000) (Abcam, Cat. Ab97225) diluted with Casein solution was added and the plate was incubated at room temperature for 1 h. […] The OD450 value was read using a microplate reader, recorded, and saved. Finally, the data were analyzed using GraphPad software.

BSA-MMAF [1] = test: Peptide competitive ELISA (PP-1B-#74); type: binding; details: FIG. 43
Procedure: Based on the peptide molecule binding activity results, molecule PP-1B-#74 was further verified for its specific binding to MMAE through competitive experiments.
• (1) Antigen coating: BSA-MMAF was coated onto a microplate using coating buffer at a concentration of 1 µg/mL, and the plate was placed at 4°C overnight for about 16 h. (2) Blocking: The microplate coated with antigen was washed once with PBST using a plate washer, and blocked by adding Casein solution at 200 µL/well at room temperature for 1 h. (3) Primary antibody incubation: The plate was washed 3 times with PBST, and a premixture of peptide sample diluted with Casein solution and truncated free MMAE/null-ADC was added. The final concentration of the peptide sample was 2000 nM. The initial concentration of truncated free MMAE and null-ADC was 1000 nM, diluted in a 10-fold gradient, and incubation was performed at room temperature for 2 h. (4) Secondary antibody incubation: The plate was washed 3 times with PBST, and secondary antibody Goat pAb to Hu IgG(HRP) (1:10000) diluted with Casein solution was added and the plate was incubated at room temperature for 1 h. […] Termination: 100 µL of 2 M H2SO4 was added to each well to terminate the reaction, and the OD450 value was read using a microplate reader, recorded, and saved. (6) Finally, the data were analyzed using GraphPad software.

OVA-DXD = test: Dot blot screening for DXD specific binding peptides; details: OVA or OVA-DXD 20 µg/mL spotted (FIG. 40)
Procedure: Sample preparation: 50 mL of bacterial liquid induced with IPTG overnight (16°C, 16 h) was collected by centrifugation at 5000 rpm for 5 min, and the supernatant was discarded. 7 mL of PBS was added to resuspend the bacterial pellet, and it was disrupted at 200 W for 5 min. It was centrifuged at 12,000 rpm for 20 min, and the supernatant was collected for later use. Spotting: A nylon membrane (Beyotime, CAT#FFN10) was cut to an appropriate size and marked with lines. 3 µL of antigen sample (OVA or OVA-DXD, 20 µg/mL) was spotted onto the membrane using a pipette. The consistency of the spotted volume and the spacing between spots were carefully dealt with to avoid mutual interference between samples. After spotting, the membrane was allowed to dry naturally at room temperature. Blocking: The dried membrane was placed in a blocking solution (5% skim milk) and blocked on a shaker at room temperature for 1 to 2 h. The purpose of blocking was to prevent non-specific binding and reduce background signals. Washing: After incubation of the primary antibody, the membrane was thoroughly washed with washing buffer (PBST) 3 times for 5 min each time to remove unbound primary antibody. Secondary antibody incubation: The membrane was placed in a solution containing appropriately diluted secondary antibody and incubated at room temperature for 1 to 2 h. The secondary antibody was an antibody against the primary antibody, usually carrying a detectable label such as horseradish peroxidase (HRP) or alkaline phosphatase (AP). Washing: The membrane was washed again with washing buffer to remove unbound secondary antibody, 3 times for 5 min each time. Color development: An appropriate amount of ECL color development substrate solution was applied to the membrane, and the reaction was performed at room temperature protected from light. The color development was observed using a gel imager, and the membrane was photographed and recorded. Through observing the presence or absence and the color depth of the spots, the target protein in the sample can be qualitatively or semi-quantitatively analyzed.

Nectin-4 = Nectin-4 (UniProt Q96NY8); test: binding assay read as OD450; method not described
BSA-MMAF [2] = test: Peptide competitive ELISA; type: binding; details: peptide 2000 nM, truncated free MMAE or null-ADC from 1000 nM (FIG. 35)
Procedure: • (1) Antigen coating: BSA-MMAF was coated onto a microplate using coating buffer at a concentration of […], and placed at 4°C overnight for about 16 h. (2) Blocking: The microplate coated with antigen was washed once with PBST using a plate washer, and blocked by adding Casein solution at 200 µL/well at room temperature for 1 h. (3) Primary antibody incubation: The plate was washed 3 times with PBST, and a premixture of peptide sample diluted with Casein solution and truncated free MMAE/null-ADC was added. The final concentration of the peptide sample was 2000 nM. […] The positive control was molecule ABC3320 with a final concentration of 1.28 nM. Incubation was performed at room temperature for 2 h. (4) Secondary antibody incubation: The plate was washed 3 times with PBST, and secondary antibody Goat pAb to Hu IgG(HRP) (1:10000) diluted with Casein solution was added and incubated at room temperature for 1 h. (5) Color development: The plate was washed 6 times with PBST, 100 µL of TMB color development solution was added to each well, and color was developed for 2 to 10 min protected from light. (6) Termination: 100 µL of 2 M H2SO4 was added to each well to terminate the reaction. The OD450 value was read using a microplate reader, recorded, and saved. Finally, the data were analyzed using GraphPad software.

NCI-H292 tumor cells = test: Inhibitory effect of DXD-binding peptides on DXD cytotoxicity; type: cell-based; details: DXD 1 ng/mL, peptides from 100 µg/mL, 3 days (FIG. 41)
Procedure: NCI-H292 tumor cells were used to detect the inhibitory effect of DXD-binding peptides on DXD cytotoxicity.
NCI-H292 cells were digested, counted, and plated at 5E3 cells/well, with 60 µL per well, and allowed to adhere in a 37°C incubator. Peptide molecules and nonsense control antibody Null IgG were 2-fold diluted for 7 gradients starting at a concentration of 100 µg/mL The DXD concentration was fixed to 1 ng/mL. The test substances were incubated with DXD at room temperature for 2 h. The incubated samples were added into the 96-well plate at 60 µL/well and cultured in a 37°C incubator for 3 days. 100 µL of Cell Counting-Lite 2.0 Reagent was added to each well, and the plate was shaken on a shaker for 10 min. The fluorescence signal was read using a microplate reader.

Nectin-4, sequence (Q96NY8 32-349 limits assumed): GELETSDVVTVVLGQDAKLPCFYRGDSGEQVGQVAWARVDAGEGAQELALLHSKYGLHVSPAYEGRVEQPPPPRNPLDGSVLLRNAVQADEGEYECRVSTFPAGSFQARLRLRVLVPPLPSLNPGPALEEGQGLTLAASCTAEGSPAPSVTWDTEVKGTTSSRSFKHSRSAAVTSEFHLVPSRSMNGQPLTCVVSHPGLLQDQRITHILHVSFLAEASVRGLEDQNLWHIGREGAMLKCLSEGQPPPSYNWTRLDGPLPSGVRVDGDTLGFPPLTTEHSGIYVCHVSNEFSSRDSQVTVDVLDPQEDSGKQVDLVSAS

Row | Substance | specific binding to OVA-MMAF and OVA (OVA-MMAF) | specific binding to DXD (dot blot) (OVA-DXD) | also measured
1 | ACRLTGPDWLHTQRC (cysteine pairing not given here; also: Fc fusion) [PP-1A-#88] | specific binding to OVA-MMAF, but the binding activity was relatively weak |  | 
2 | ACLRNSPRKQC (cysteine pairing not given here; also: Fc fusion) [PP-1A-#90] | specific binding to OVA-MMAF, but the binding activity was relatively weak |  | 
3 | ACHWNAKADYGSFVC (cysteine pairing not given here; also: Fc fusion) [PP-1A-#91] | specific binding to OVA-MMAF, but the binding activity was relatively weak |  | 
4 | YYVAWRW [PP-1B-#74] |  |  | specific binding to OVA-MMAF and BSA-MMAF (OVA-MMAF and BSA-MMAF): able to specifically bind to OVA-MMAF and BSA-MMAF; specific binding to MMAE (competitive ELISA) (BSA-MMAF [1]): able to specifically bind to MMAE
5 | LTVAMITTSRITTSN [PP-1A-#362] |  | capable of specifically binding to DXD | 
6 | ACYPFGNPRGVRPSC [PP-1A-#426] |  | capable of specifically binding to DXD | 
7 | hIgG1 (antibody) |  |  | Top OD450 (Nectin-4): 0 OD450
8 | VALTWYYPIYLFATR [PP-1A-#330] |  | capable of specifically binding to DXD | 
9 | ACWTLWLPLLPLGSC [PP-1A-#428] |  | capable of specifically binding to DXD | 
10 | ACLPNSLGPSAMSSC [PP-1A-#86] | good binding activity to OVA-MMAF and did not bind to OVA |  | 
11 | ACTGCSRTHSPRSRC (cysteine pairing not given here; also: Fc fusion) [PP-1A-#92] | specific binding to OVA-MMAF, but the binding activity was relatively weak |  | 
12 | ACSQCVLLPPPQSVC [PP-1A-#431] |  | capable of specifically binding to DXD | 
13 | Enfortumab vedotin (in-house) (antibody) |  |  | Top OD450 (Nectin-4): 1.23 OD450
14 | ACDESHGVPHTSGMC [PP-1A-#85] | good binding activity to OVA-MMAF and did not bind to OVA |  | competitive binding of free MMAE (BSA-MMAF [2]): blocked by truncated free MMAE, but not blocked by null-ADC
15 | ILTTVNVVPNTIHVR [PP-1A-#340] |  | capable of specifically binding to DXD | cytoprotective effect (NCI-H292 tumor cells): exhibited a cytoprotective effect
16 | AHNVEILPPFDYTLS [PP-1A-#358] |  | capable of specifically binding to DXD | 
17 | ACGSLSWRNCGSYRC [PP-1A-#417] |  | capable of specifically binding to DXD | cytoprotective effect (NCI-H292 tumor cells): exhibited a cytoprotective effect
18 | APPTFPVSTSVVISR [PP-1A-#367] |  | capable of specifically binding to DXD | 
19 | ACVLSPHPQAC [PP-1A-#93] | good binding activity to OVA-MMAF and did not bind to OVA |  | competitive binding of free MMAE (BSA-MMAF [2]): blocked by truncated free MMAE, but not blocked by null-ADC
20 | ACLACWTSRSC [PP-1A-#414] |  | capable of specifically binding to DXD | cytoprotective effect (NCI-H292 tumor cells): exhibited a cytoprotective effect; also recorded: had the best activity
21 | ACLSPWLFFWC [PP-1A-#415] |  | capable of specifically binding to DXD | cytoprotective effect (NCI-H292 tumor cells): exhibited a cytoprotective effect
22 | ACTPALRSLAC (cysteine pairing not given here; also: Fc fusion) [PP-1A-#89] | good binding activity to OVA-MMAF and did not bind to OVA |  | 
